Source: PubChem BioAssay (NCI)
Several values for one entry are separate records, joined by “and”; a condition that tells them apart may be missing. Equal entries are not always repeated.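 96-well plates; 48 h exposure; 5 concentrations. Endpoints by linear interpolation between flanking doses. Not reached: highest tested concentration assigned. The concentration for 50% growth inhibition is given as GI50. TGI: concentration producing complete growth inhibition.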

Key:
Assay in all cases: growth of human tumour cells (NCI), 48 h
UACC-62 melanoma = system: UACC-62 melanoma
OVCAR-8 ovarian = system: OVCAR-8 ovarian
CCRF-CEM leukemia = system: CCRF-CEM leukemia
DU-145 prostate = system: DU-145 prostate
SR leukemia = system: SR leukemia
RXF 393 renal = system: RXF 393 renal
SK-OV-3 ovarian = system: SK-OV-3 ovarian
IGROV1 ovarian = system: IGROV1 ovarian
NCI-H460 lung = system: NCI-H460 lung
U251 CNS = system: U251 CNS

Row | Structure (SMILES) | TGI (UACC-62 melanoma) | TGI (OVCAR-8 ovarian) [µM] | TGI (CCRF-CEM leukemia) | TGI (DU-145 prostate) | TGI (SR leukemia) [µM] | TGI (RXF 393 renal) [µM] | TGI (SK-OV-3 ovarian) | TGI (IGROV1 ovarian) [µM] | TGI (NCI-H460 lung) | TGI (U251 CNS) | GI50 (UACC-62 melanoma) [µM] | GI50 (OVCAR-8 ovarian) [µM] | GI50 (CCRF-CEM leukemia) [µM] | GI50 (DU-145 prostate) [µM] | GI50 (SR leukemia) [µM] | GI50 (RXF 393 renal) [µM] | GI50 (SK-OV-3 ovarian) [µM] | GI50 (IGROV1 ovarian) [µM] | GI50 (NCI-H460 lung) [µM] | GI50 (U251 CNS) [µM]
1 | COc1cc(N(C)C)c(OC)cc1C=C1C=CC=C1 | > 100 µM | > 100 | > 100 µM | > 100 µM | > 100 | > 100 | > 100 µM | > 100 | > 100 µM | > 100 µM |  |  |  |  |  |  |  |  |  | 
2 | COc1cc(NC2CCCCC2O)c2nc(-c3ccc(Cl)cc3)ccc2c1 (stereo not drawn) | 40.6 µM | > 100 | 68.5 µM | 58 µM | 32.8 | 4.58 | > 100 µM | > 100 | 12.3 µM | > 100 µM | 11.1 | 12.2 | 4.34 | 12.7 | 3.26 | 2.78 | 33.5 | 24.6 | 3.35 | 3.88
3 | Nn1c(-c2ccc(Cl)cc2)nc2c(-c3ccc(Cl)cc3)nc3ccc(Cl)cc3c2c1=O | > 100 µM | 95.2 | 1.11 µM | > 100 µM | 20.2 | 30.9 | 40.3 µM | 32.8 | > 100 µM | 12.7 µM | 32.2 | 7.58 |  | 4.96 | 4.08 | 11.8 | 14.5 | 4.01 | 3.36 | 3.07
4 | O=[N+]([O-])/C=C/c1ccc(Cl)cc1[N+](=O)[O-] | 3.64 µM | 13.6 | 8.85 µM | 5.49 µM | > 100 | 4.02 | 24.5 µM | 5.85 | 33.5 µM | 3.67 µM | 1.55 | 3.88 | 1.12 | 2.52 | 1.68 | 2.36 | 12.1 | 2.01 | 3.42 | 1.95
5 | O=C(O)c1ccccc1NCn1c(=S)sc2ccccc21 | > 100 µM | > 100 | 52.2 µM | > 100 µM | 81.6 | > 100 | > 100 µM | > 100 | 48.5 µM | > 100 µM |  |  |  |  |  |  |  |  |  | 
6 | COc1cc2c3cc1Oc1c(OC)c(OC)cc4c1C(Cc1ccc(O)c(c1)Oc1ccc(cc1)CC3N(C)CC2)N(C)CC4 (stereo not drawn) | > 100 µM and 29.2 µM | > 100 | 81.8 µM and 57.6 µM | > 100 µM and 84.4 µM | 21 | 14.8 | 91.2 µM and > 100 µM | > 100 | 32.4 µM and 38.8 µM | 69.4 µM and 28.9 µM |  | 21.4 |  | 18.2 | 3.32 | 2.18 | 36.9 | 27.7 |  | 11.5
7 | C[As](C)SC1OCC(O)C(O)C1O (stereo not drawn) | 0.556 µM | 2.82 | 6.42 µM | 0.824 µM | 0.0849 | 3.39 | 4.47 µM | 6.71 | 7.52 µM | 1.71 µM | 0.195 | 0.284 | 0.4 | 0.122 | 0.0255 | 0.321 | 0.211 | 0.805 | 1.1 | 0.46
8 | COc1cc2c3c(n(CCCNCCCNCCCN)c(=O)c2cc1OC)-c1cc2c(cc1C3=O)OCO2 | > 100 µM | > 100 | > 100 µM | > 100 µM | 89 | > 100 | > 100 µM | > 100 | > 100 µM | > 100 µM | 44.1 | > 100 | 35.1 | > 100 | 13.6 | > 100 | > 100 | > 100 | > 100 | 46.2
9 | COc1ccc(-c2c(N)noc2-c2cc(OC)c3c(c2)OCCO3)cc1 | 28.2 µM | > 33.2 | 1.74 µM | 0.193 µM | > 52.4 | 0.0467 | 1.01 µM | > 73.3 | 11.9 µM |  | < 0.01 | 0.0212 | 0.0166 | 0.0202 | < 0.01 | < 0.01 | < 0.0121 | 0.0177 | < 0.01 | < 0.0119
10 | Cc1nc2ccccc2c(=O)n1/N=C(\N=Nc1cc(Cl)ccc1Cl)c1ccccc1 | > 100 µM | > 100 | > 100 µM | > 100 µM | > 100 | > 100 | > 100 µM | > 100 | > 100 µM | > 75.2 µM |  |  |  |  |  |  |  |  |  | 
11 | COc1ccc(-c2cc(/C=C/C(=O)c3ccc(N)cc3)[nH]n2)cc1 | 2.94 µM | 15.4 | 4.91 µM | 3.46 µM | 6.09 | 4.19 | 18 µM | 6.45 | 4.95 µM | 2.57 µM | 1.48 | 2.44 | 1.32 | 1.32 | 0.799 | 1.67 | 4.72 | 2.27 | 2.07 | 1.24
12 | O=c1[nH]cnc2n[nH]nc12 | 6.8 µM | > 100 | > 100 µM | > 100 µM | > 52.7 | 14.4 | > 25.2 µM | > 100 | > 69.7 µM | > 100 µM |  |  |  | 2.89 |  |  |  |  |  | 
13 | CCOC(=O)c1c(NC(=O)c2ccc(Cl)cc2)sc2c(CN(C)C)c(O)ccc12 | 14.8 µM | 19.2 | > 100 µM | 47.9 µM | 4.82 | 13.4 | 33.3 µM | 31.7 | > 100 µM | 23.5 µM | 3.41 | 3.55 | 13.3 | 13.2 | 2.19 | 2.98 | 10.9 | 8.88 | 4.71 | 4.85
14 | CC1(C)C2CCC13C(=O)C1OC3(C2)C2C(=O)c3c(ccc4c3ccc3ccccc34)C(=O)C12 (stereo not drawn) | > 100 µM | > 100 | > 62.9 µM | > 100 µM | 51 | > 100 | > 100 µM | > 100 | > 100 µM | > 100 µM | > 100 | > 61.1 | 21.5 | > 100 | 1.86 | 84 | > 100 | > 100 | 57.3 | > 64.8
15 | CC[C@H]1OC(=O)[C@H](C)[C@@H](O[C@H]2C[C@@](C)(OC)[C@@H](O)[C@H](C)O2)[C@H](C)[C@@H](O[C@@H]2O[C@H](C)C[C@H](N(C)C)[C@H]2O)[C@](C)(OC)C/C(C)=C2/O[C@@]1(C)C=C2C | 3.18 µM | 5.75 | 5.62 µM | 3.39 µM | 5.09 | 3.75 | 3.75 µM | 3.03 | 3.35 µM | 3.54 µM | 1.76 | 2.2 | 2.22 | 1.82 | 1.97 | 2.09 | 1.91 | 1.59 | 1.81 | 1.75
16 | C#C[C@]1(O)CC[C@H]2[C@@H]3CC=C4c5nc(N)sc5CC[C@]4(C)[C@H]3CC[C@@]21C | 5.2 µM | 56.1 | 14.9 µM | 20.8 µM | 9.18 | 3.72 | 10.5 µM | 25.9 | 16.4 µM | 16.4 µM | 2.05 | 9.12 | 2.79 | 5.19 | 2.31 | 1.81 | 3.5 | 4.83 | 3.78 | 2.47
17 | CCOC(=O)c1c(CN2CCN(C)CC2)nc2ccc(Cl)cc2c1-c1ccccc1 | 7.76 µM | 29.6 | 28.9 µM | 26.7 µM | 4.78 | 15.4 | 25.8 µM | 19.9 | 13 µM | 23 µM | 2.35 | 15.2 | 7.17 | 13.7 | 1.93 | 5.33 | 12.8 | 7.14 | 3.9 | 8.26
18 | COc1ccccc1NC(=O)C1=C(C)NC(C)=C(C(=O)Nc2ccccc2OC)C1c1ccco1 | 22.9 µM | > 100 | 59.8 µM | > 100 µM | 15.3 | 10.6 | > 76.3 µM | > 100 | > 43.9 µM | 47 µM |  |  |  |  |  |  |  |  |  | 
19 | Cc1ccc(OC(=O)N2C/C(=C\c3ccccc3)C(=O)/C(=C/c3ccccc3)C2)cc1 | 59 µM | 54.5 | 16.3 µM | > 100 µM | 13.2 | 37.5 | 86.2 µM | > 95.5 | > 100 µM | 38.6 µM |  |  |  |  |  |  |  |  |  | 
20 | O=CN1N=C(c2cccc(Nc3ccnc4cc(Cl)ccc34)c2)CC1c1ccc(Cl)cc1 (stereo not drawn) | > 100 µM | > 100 | > 100 µM | > 100 µM | 2.13 | > 100 | 56.9 µM | > 100 | > 100 µM | 20.7 µM | 1.63 | 3.8 | 2.34 | 4.17 | 0.367 | 3.08 | 3.48 | 0.757 | 0.787 | 1.29
21 | O=c1cccc(Cl)[nH]1 | > 100 µM | > 100 | > 100 µM | > 100 µM | > 100 | > 100 | > 100 µM | > 100 | > 100 µM | > 100 µM |  |  |  |  |  |  |  |  |  | 
22 | CN1CC[C@H](c2c(O)cc(O)c3c(=O)cc(-c4ccccc4Cl)oc23)[C@H](O)C1 | 0.164 µM | > 10 | > 10 µM | > 10 µM | > 2.67 | 0.0671 | > 10 µM | > 10 | > 10 µM | > 10 µM | 0.0515 | 0.0723 |  | 0.075 | 0.0045 | 0.0204 | 0.49 | 0.0414 |  | 
23 | COc1ccc(C2=Nn3c(nnc3-n3nc(C)cc3C)SC2)cc1 | > 100 µM | > 100 | > 100 µM | 1.25 µM | > 100 | > 100 | > 100 µM | > 100 | > 100 µM | > 100 µM | 0.0462 | 0.0691 | 0.038 | 0.04 | 0.0242 | 0.0599 | 0.0908 | 0.107 | 0.0518 | 0.0532
24 | COc1cc(-c2nn(-c3cccc(NC(=O)CCNc4ccc(N5CCOCC5)cc4)c3)cc2-c2ccncc2)ccc1Cl | 4.89 µM | 16.1 | > 100 µM | > 100 µM | 9.09 | 8.08 | > 100 µM | > 100 | 30 µM | 63 µM | 1.88 | 2.92 | 2.95 | 4.04 | 2.13 | 2.05 | 5.02 | 3.31 | 2.95 | 2.52
25 | CC(=O)Oc1cc2cnc3c4cc(OC(C)=O)c(OC(C)=O)cc4ccc3c2cc1OC(C)=O | 3.26 µM | 31.2 | > 100 µM | > 100 µM | > 100 | 8.88 | > 100 µM | 14 | > 100 µM | 10.6 µM | 0.979 | 1.97 | 0.608 | 2.61 | 0.629 | 1.79 | 4.32 | 1.01 | 0.569 | 0.548
26 | COc1cccc(-c2nc3sccn3c2-c2ccnc(NCCCNS(=O)(=O)c3ccccc3)c2)c1 | 5.08 µM | > 100 | > 100 µM | > 100 µM | 92.6 | > 100 | > 100 µM | > 100 | > 100 µM | > 100 µM | 1.98 | 2.99 | 2.73 | 3.14 | 3.57 | 5.79 | 5.43 | 3.14 | 3.35 | 4.55
27 | CC1OC(OC2C(O)C(O)C(O)C(O)C2O)C(N)CC1N=C(N)C(=O)O (stereo not drawn) | > 100 µM | > 100 | > 100 µM | > 100 µM | > 100 | > 100 | > 100 µM | > 100 | > 100 µM | > 100 µM |  |  |  |  |  |  |  |  |  | 
